# Experimental data reported in BindingDB's records for doi:10.1016/j.ejmech.2011.02.013 (King Saud University, 2011).
# Target: T1, Prostaglandin G/H synthase 1 (Ovis aries, UniProt P05979)
# T1 sequence (P05979 whole entry): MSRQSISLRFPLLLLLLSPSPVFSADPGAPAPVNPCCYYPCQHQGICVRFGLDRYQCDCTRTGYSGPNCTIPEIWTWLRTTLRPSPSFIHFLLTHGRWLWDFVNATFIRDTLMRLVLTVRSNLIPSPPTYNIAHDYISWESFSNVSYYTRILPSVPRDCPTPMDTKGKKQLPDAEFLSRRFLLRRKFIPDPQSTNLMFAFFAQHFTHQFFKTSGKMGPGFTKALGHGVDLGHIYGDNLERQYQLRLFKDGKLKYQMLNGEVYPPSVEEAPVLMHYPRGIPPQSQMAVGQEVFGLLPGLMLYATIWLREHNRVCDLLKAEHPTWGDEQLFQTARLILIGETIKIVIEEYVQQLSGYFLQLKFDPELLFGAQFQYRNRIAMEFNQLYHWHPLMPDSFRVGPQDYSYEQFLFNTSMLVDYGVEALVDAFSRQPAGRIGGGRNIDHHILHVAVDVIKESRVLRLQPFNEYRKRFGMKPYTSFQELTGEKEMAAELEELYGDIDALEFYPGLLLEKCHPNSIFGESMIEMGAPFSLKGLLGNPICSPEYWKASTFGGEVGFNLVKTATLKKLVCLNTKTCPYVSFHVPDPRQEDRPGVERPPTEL
# Assay: Inhibition of ovine COX1 after 5 mins by enzyme immunoassay
row,Compound,IC50
1,"COc1cc(-n2c(O)c3c(c2O)C2(Cl)C(Cl)=C(Cl)C3(Cl)C2(Cl)Cl)cc(OC)c1OC [4,5,6,7,8,8-Hexachloro-2-(3,4,5-trimethoxyphenyl)-3a,4,7,7a-tetrahydro-1H-4,7-methanoisoindole-1,3(2H)-dione]",> 100 µM
2,"Oc1ccc(O)n1-c1cc(Cl)c(Cl)c(Cl)c1 [1-(3,4,5-trichlorophenyl)pyrrolidine-2,5-dione]",> 100 µM
3,"Oc1c2c(c(O)n1-c1cc(Cl)c(Cl)c(Cl)c1)CC=CC2 [cis-2-(3,4,5-Trichlorophenyl)-3a,4,7,7a-tetrahydro-1H-isoindole-1,3(2H)-dione]",> 100 µM
4,"Oc1c2c(c(O)n1-c1cc(Cl)c(Cl)c(Cl)c1)C1(Cl)C(Cl)=C(Cl)C2(Cl)C1(Cl)Cl [4,5,6,7,8,8-Hexachloro-2-(3,4,5-trichlorophenyl)-3a,4,7,7a-tetrahydro-1H-4,7-methanoisoindole-1,3(2H)-dione]",> 100 µM

# Further lines, results first:
row,IC50,Compound
1,> 100 µM,"COc1cc(-n2c(O)c3c(c2O)CC=CC3)cc(OC)c1OC [cis-2-(3,4,5-Trimethoxyphenyl)-3a,4,7,7a-tetrahydro-1H-isoindole-1,3(2H)-dione]"
2,> 100 µM,"COc1cc(-n2c(O)ccc2O)cc(OC)c1OC [1-(3,4,5-Trimethoxyphenyl)pyrrolidine-2,5-dione]"
